For assay [1], the system named is CAGE expression in PANC-1 and ACHN cancer cell lines. Description: RT-PCR of CAGE expression after treatment of cancer cell lines that do not express CAGE. The note with it: various concentrations for 4 days or 2 μM for various time periods. It counts as cell-based. An excerpt: Many of the known C/T antigen genes are methylated in their promoter regions. […] It is understood that it would be within one of ordinary skill in the art to determine the methylation status of CAGE gene by cloning the promoter sequence of CAGE using any available method such as, but not limited to, genomic inverse PCR.
Next, we investigated whether CAGE gene was methylated. […] For RT-PCR, 5′-[…]-3′ (sense, SEQ ID NO: 11) and 5′-[…]-3′ (antisense, SEQ ID NO: 7) were used. While the mechanism of transcriptional silencing of CAGE in some cancer cell lines may not be clear, it appears that testis-specific expression of CAGE is related at least in part to its demethylation level. In addition, the role of transcription factors in the expression of CAGE gene cannot be ruled out. The absence of transcription factors in other somatic tissues may be responsible for the absence of CAGE expression in these tissues.

The next assay relates to CD8+ T cells. Nature of the assay: IFN-γ ELISPOT assay for measuring CD8+ T cell stimulation. It counts as cell-based, human. The note with it: 10 μg/ml peptide; CD8+ T cells from PBL of healthy HLA-A2 donors as effector, T2 cells as target, 20 hours. The protocol:
With these peptides, we stimulated CD8+ T cells isolated from PBL of healthy donors. The activated CD8+ T cells were incubated with target cells ([…]). The effect of CD8+ T cells on target cells was measured by ELISPOT assay, which detects the amount of IFN-γ released due to activation of CD8+ T cells.
For isolation of PBL, Ficoll-Paque® PLUS (Amersham Pharmacia Biotech) was used. Isolation of PBLs was carried out according to the instruction manual provided by the manufacturer (Amersham Pharmacia Biotech). Briefly, 30 ml of whole blood was mixed with 20 ml of Ficoll-Paque® and centrifuged at 800 g for 20 min. The pellet was transferred to a new tube. 20 ml of PBS buffer was added to the pellet, and centrifuged at 800 g for 10 min. After centrifugation, 10 ml of PBS buffer was added to the pellet. 5 ml of Ficoll-Paque® was added and the contents centrifuged at 800 g for 20 min. 10 ml PBS was added to the pellet for washing, and the contents centrifuged at 800 g for 10 min. Isolated PBLs from healthy donors (HLA-A2 type) were dissolved in RPMI 1640 containing 10% human serum and antibiotics.
For isolation of CD8+ T cells from PBL, CD8 negative isolation kit (DYNAL) was used and isolation was carried out according to the instruction manual provided by the manufacturer. […]

Entries after “also recorded” stand apart in the source; their conditions may differ.

For the molecule `Nc1ncn([C@H]2C[C@H](O)[C@@H](CO)O2)c(=O)n1` [5-aza-2′-deoxycytidine], in assay [1], the “induction of CAGE expression (RT-PCR)” value is “induced CAGE expression in both dose and time-dependent manner; also recorded: induced expression of CAGE in dosage and time-dependent manner”. On to “KMAGELIKI [peptide of CAGE protein, start position 576]”, for which, in the assay with CD8+ T cells, the “induction of CD8+ T cells (IFN-γ release, ELISPOT)” value is listed as “showed induction of CD8+ T cells”.

For “YLMPGFIHL [peptide of CAGE protein, start position 276]”, the “induction of CD8+ T cells (IFN-γ release, ELISPOT)” value with CD8+ T cells was “showed induction of CD8+ T cells”.
